Data: patent US9902728B2, “Pyrrolo and pyrazolopyrimidines as ubiquitin-specific protease 7 inhibitors” (Forma Therapeutics, Inc., priority 2014, dated 2018)

target: T1, USP7 (Homo sapiens, UniProt Q93009); assay: USP7 Assay A (Ubitquin-Rhodamine 110 Assay); type: biochemical; conditions: USP7 activity in USP7 assay A and B (table does not say which assay per compound); read-out: USP7_IC50
T1 construct: USP7, construct USP7 (208-1102) 6*His, Viva Biotech; 6xHis (C); purchased Viva Biotech
Summary of the method: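 Ub-Rh110 cleavage in 20 mM Tris-HCl pH 8.0 with 1 mM GSH, 0.03% BGG, 0.01% Triton X-100; compound preincubated with enzyme 30 min before substrate.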

T1 sequence (Q93009 208-1102): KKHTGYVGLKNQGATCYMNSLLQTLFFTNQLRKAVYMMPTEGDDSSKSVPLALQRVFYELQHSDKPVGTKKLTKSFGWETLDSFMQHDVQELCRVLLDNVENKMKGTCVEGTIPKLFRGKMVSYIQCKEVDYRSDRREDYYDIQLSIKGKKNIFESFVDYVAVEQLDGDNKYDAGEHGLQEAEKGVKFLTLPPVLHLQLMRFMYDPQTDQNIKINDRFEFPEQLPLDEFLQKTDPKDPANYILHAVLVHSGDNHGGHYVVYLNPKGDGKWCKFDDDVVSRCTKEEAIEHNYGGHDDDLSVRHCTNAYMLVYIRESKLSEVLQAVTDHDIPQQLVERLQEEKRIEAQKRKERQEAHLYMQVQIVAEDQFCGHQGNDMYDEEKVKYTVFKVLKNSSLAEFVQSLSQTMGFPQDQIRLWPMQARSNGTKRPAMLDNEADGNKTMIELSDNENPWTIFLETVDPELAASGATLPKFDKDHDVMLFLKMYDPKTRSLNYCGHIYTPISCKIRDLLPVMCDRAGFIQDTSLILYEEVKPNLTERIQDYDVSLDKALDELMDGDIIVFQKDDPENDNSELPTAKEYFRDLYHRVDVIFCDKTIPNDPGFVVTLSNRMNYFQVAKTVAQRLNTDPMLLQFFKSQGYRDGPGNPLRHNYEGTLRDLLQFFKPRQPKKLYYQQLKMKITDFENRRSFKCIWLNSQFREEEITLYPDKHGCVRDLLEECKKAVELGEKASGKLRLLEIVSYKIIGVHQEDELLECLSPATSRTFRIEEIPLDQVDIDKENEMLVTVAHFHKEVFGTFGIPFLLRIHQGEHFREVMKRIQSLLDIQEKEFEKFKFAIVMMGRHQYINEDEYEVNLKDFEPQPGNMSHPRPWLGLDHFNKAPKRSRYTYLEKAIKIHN

SMILES	IC50 [nM]
O=C(C[C@@H](C(F)F)n1ccc(F)n1)N1CCC(O)(Cn2cnc3c(cnn3-c3ccc(N4CC5CC5C4)cc3)c2=O)CC1 (stereo partly drawn) [Compound I-784]	< 200
O=C(C1CC1)N1CCC(O)(Cn2cnc3c(cnn3-c3ccc(N4CCC(O)C4)cc3)c2=O)CC1 (stereo not drawn) [Compound I-1655]	1000 to 10000
Cn1ccc(NC2CCC(C(=O)N3CCC(O)(Cn4cnc5c(ccn5-c5ccc(F)cc5)c4=O)CC3)CC2)n1 (stereo not drawn) [Compound I-1040]	1000 to 10000
CC1(COc2ccc(-n3ncc4c(=O)n(CC5(O)CCN(C(=O)c6ccc(F)cc6)CC5)cnc43)cc2)COC1 [Compound I-1756]	200 to 1000
CN1CCN(c2ccc(-n3ncc4c(=O)n(CC5(O)CCN(C(=O)C[C@H](C(F)F)n6cccn6)CC5)cnc43)cc2)CC1 [Compound I-826]	< 200
Cc1ncc(-c2ccc(C(=O)N3CCC(O)(Cn4cnc5c(cnn5-c5ccc(Cl)cc5)c4=O)CC3)cc2)n1C [Compound I-1101]	1000 to 10000
O=C(c1cnc(C2CC2)o1)N1CCC(O)(Cn2cnc3c(cnn3-c3ccc(N4CCC(F)(F)CC4)cc3)c2=O)CC1 [Compound I-699]	200 to 1000
Cc1cnn(-c2ccc(-n3ncc4c(=O)n(CC5(O)CCN(C(=O)c6cnc(C7CC7)o6)CC5)cnc43)cc2)c1 [Compound I-779]	< 200
Cc1cnn(-c2ccc(-n3ncc4c(=O)n(CC5(O)CCN(C(=O)c6cnc(C)o6)CC5)cnc43)cc2)c1 [Compound I-488]	< 200
O=C(c1ccc(F)cc1)N1CCC(O)(Cn2cnc3c(cnn3-c3ccc(-n4ncc5c4CCOC5)cc3)c2=O)CC1 [Compound I-820]	200 to 1000
O=C(c1nnc(C2CC2)o1)N1CCC(O)(Cn2cnc3c(cnn3-c3ccc(F)cc3)c2=O)CC1 [Compound I-556]	1000 to 10000
O=C(C[C@H](C(F)F)n1cc(F)cn1)N1CCC(O)(Cn2cnc3c(cnn3-c3ccc(F)cc3)c2=O)CC1 [Compound I-1159]	< 200
CN1CCN(c2cccc(-n3ccc4c(=O)n(CC5(O)CCN(C(=O)C[C@H](C(F)F)n6cccn6)CC5)cnc43)c2)CC1 [Compound I-792]	200 to 1000
C=CC(=O)N1CCC1C(=O)N1CCC(O)(Cn2cnc3c(cnn3-c3cccc(N4CCN(C)CC4)c3)c2=O)CC1 (stereo not drawn) [Compound I-831]	< 200
O=C(NC1CCC(C(=O)N2CCC(O)(Cn3cnc4c(cnn4-c4ccc(F)cc4)c3=O)CC2)CC1)C1CC1 (stereo not drawn) [Compound I-1075]	1000 to 10000
Cn1ncc2c1CN(C(=O)N1CCC(O)(Cn3cnc4c(cnn4-c4ccc(F)cc4)c3=O)CC1)CC2 [Compound I-762]	1000 to 10000

SMILES	IC50 [nM]
O=C(c1ccc(-c2cnn3c2OCCC3)cc1)N1CCC(O)(Cn2cnc3c(cnn3-c3ccc(F)cc3)c2=O)CC1 [Compound I-551]	200 to 1000
CC1(C(=O)N2CCC(O)(Cn3cnc4c(cnn4-c4ccc(N5CCC6(CC5)CC(F)(F)C6)cc4)c3=O)CC2)CCC1 [Compound I-1718]	< 200
O=C(C1CCC(n2cccn2)CC1)N1CCC(O)(Cn2cnc3c(cnn3-c3ccc(F)cc3)c2=O)CC1 (stereo not drawn) [Compound I-548]	1000 to 10000
O=C(c1cnc(C2CC2)o1)N1CCC(O)(Cn2cnc3c(cnn3-c3ccc(OCC4(F)CCC4)cc3)c2=O)CC1 [Compound I-981]	< 200
C[C@@H](c1ccccc1)c1nn(C)cc1C(=O)N1CCC(O)(Cn2cnc3c(cnn3-c3ccc(F)cc3)c2=O)CC1 [Compound I-1163]	1000 to 10000
C[C@H](c1ccccc1)c1nn(C)cc1C(=O)N1CCC(O)(Cn2cnc3c(cnn3-c3ccc(F)cc3)c2=O)CC1 [Compound I-1162]	< 200
CC1(C(=O)N2CCC(O)(Cn3cnc4c(cnn4-c4ccc(N5CC(N6CCOCC6)C5)cc4)c3=O)CC2)CC1 [Compound I-1636]	200 to 1000
O=C(C[C@@H](C(F)F)n1cc(F)cn1)N1CCC(O)(Cn2cnc3c(cnn3-c3ccc(F)cc3)c2=O)CC1 [Compound I-918]	> 10000
Cn1cc(C2CCC(C(=O)N3CCC(O)(Cn4cnc5c(cnn5-c5ccc(F)cc5)c4=O)CC3)CC2)cn1 (stereo not drawn) [Compound I-727]	200 to 1000
Cc1ncc(C(=O)N2CCC(O)(Cn3cnc4c(cnn4-c4ccc(C5CC5)cc4)c3=O)CC2)o1 [Compound I-799]	200 to 1000
Cc1cncc(OC2CCC(C(=O)N3CCC(O)(Cn4cnc5c(cnn5-c5ccc(F)cc5)c4=O)CC3)CC2)n1 (stereo not drawn) [Compound I-1015]	200 to 1000
Cn1nccc1NC1CCC(C(=O)N2CCC(O)(Cn3cnc4c(cnn4-c4ccc(F)cc4)c3=O)CC2)CC1 (stereo not drawn) [Compound I-764]	200 to 1000
Cc1ccc(-n2ncc3c(=O)n(CC4(O)CCN(C(=O)C[C@H](C(F)F)n5ccc(F)n5)CC4)cnc32)cc1 [Compound I-796]	< 200
O=C(C1CCC(OC(F)F)CC1)N1CCC(O)(Cn2cnc3c(cnn3-c3ccc(F)cc3)c2=O)CC1 (stereo not drawn) [Compound I-1112]	1000 to 10000
O=C(c1ccc(-n2cnnn2)cc1)N1CCC(O)(Cn2cnc3c(cnn3-c3ccc(Cl)cc3)c2=O)CC1 [Compound I-1087]	200 to 1000

same assay, conditions: USP7 assay A and B (table does not say which assay per compound); Ubiquitin-Rhodamine 110 substrate; read-out: USP7_IC50

SMILES	IC50 [nM]
C[C@H](CC(=O)N1CCC(O)(Cn2cnc3c(cnn3C(C)(C)C)c2=O)CC1)c1ccccc1 [Compound I-59]	200 to 1000
CC(C)(C)n1ncc2c(=O)n(CC3(O)CCN(C(=O)c4ccc(Oc5ccccc5)cc4)CC3)cnc21 [Compound I-60]	> 10000

same assay, conditions: USP7 assay A and B (table does not say which assay per compound); read-out: USP7_IC50

SMILES	IC50 [nM]
Nc1cc(-n2ncc3c(=O)n(CC4(O)CCN(C(=O)c5ccc(F)cc5)CC4)cnc32)ccc1F [Compound I-635]	1000 to 10000
O=C(c1ccc(OC(F)F)cc1)N1CCC(O)(Cn2cnc3c(cnn3-c3ccccc3)c2=O)CC1 [Compound I-274]	1000 to 10000
CNS(=O)(=O)c1ccc(C(=O)N2CCC(O)(Cn3cnc4c(cnn4-c4ccccc4)c3=O)CC2)cc1 [Compound I-182]	1000 to 10000
CCc1ccc(CN(C)Cc2ccc(-n3ncc4c(=O)n(CC5(O)CCN(C(=O)C6CC6)CC5)cnc43)cc2)cn1 [Compound I-440]	1000 to 10000
CCN(Cc1ccc(-n2ncc3c(=O)n(CC4(O)CCN(C(=O)C5CC5)CC4)cnc32)cc1)C1CCCCC1 [Compound I-416]	1000 to 10000
O=C(c1cnc(-c2ccccc2)o1)N1CCC(O)(Cn2cnc3c(cnn3-c3ccccc3)c2=O)CC1 [Compound I-252]	200 to 1000
O=C(C1CC1)N1CCC(O)(Cn2cnc3c(cnn3-c3cccc(-c4cccc5[nH]ccc45)c3)c2=O)CC1 [Compound I-406]	1000 to 10000
COC1(C)CCN(c2cc(-n3ncc4c(=O)n(CC5(O)CCN(C(=O)C6CC6)CC5)cnc43)ccc2F)C1 (stereo not drawn) [Compound I-633]	1000 to 10000
O=C(c1ccc(=O)[nH]c1)N1CCC(O)(Cn2cnc3c(cnn3-c3ccccc3)c2=O)CC1 [Compound I-160]	200 to 1000
O=C(c1ccc(F)cc1)N1CCC(O)(Cn2cnc3c(cnn3-c3ccc(F)c(N4CCOCC4)c3)c2=O)CC1 [Compound I-639]	1000 to 10000
C[C@H](CC(=O)N1CCC(O)(Cn2cnc3c(cnn3-c3ccc(F)cc3)c2=O)CC1)n1cccn1 [Compound I-515]	1000 to 10000
COCCN(C)Cc1cccc(-n2ncc3c(=O)n(CC4(O)CCN(C(=O)C5CC5)CC4)cnc32)c1 [Compound I-449]	1000 to 10000
O=C(C1CC1)N1CCC(O)(Cn2cnc3c(cnn3-c3ccc(Cl)cc3Cl)c2=O)CC1 [Compound I-264]	> 10000
O=C(N[C@@H]1CNCC1F)N1CCC(O)(Cn2cnc3c(cnn3-c3ccc(-c4ccccc4)cc3)c2=O)CC1 (stereo partly drawn) [Compound I-663]	> 10000
O=C(NC1CNCC1F)N1CCC(O)(Cn2cnc3c(cnn3-c3ccc(-c4ccccc4)cc3)c2=O)CC1 (stereo not drawn) [Compound I-662]	> 10000
Cc1ccc(-n2ncc3c(=O)n(CC4(O)CCN(C(=O)c5ccc(OC6CCOCC6)cc5)CC4)cnc32)cc1 [Compound I-1144]	1000 to 10000
O=C(Nc1nccs1)c1ccc(-n2ncc3c(=O)n(CC4(O)CCN(C(=O)C5CC5)CC4)cnc32)cc1 [Compound I-1493]	1000 to 10000
COc1cc(C(=O)N2CCC(O)(Cn3cnc4c(cnn4-c4ccccc4)c3=O)CC2)ccc1Cl [Compound I-226]	1000 to 10000
CN1CCN(c2ccc(-c3ccc(-n4ncc5c(=O)n(CC6(O)CCN(C(=O)C7CC7)CC6)cnc54)cc3)cc2)CC1 [Compound I-844]	< 200
C[C@]1(O)CCN(c2cc(-n3ncc4c(=O)n(CC5(O)CCN(C(=O)C6CC6)CC5)cnc43)ccc2F)C1 [Compound I-637]	200 to 1000
O=C(c1ccc2c(Cl)ccnc2c1)N1CCC(O)(Cn2cnc3c(cnn3-c3ccccc3)c2=O)CC1 [Compound I-282]	1000 to 10000
COCCOc1ccc(-n2ncc3c(=O)n(CC4(O)CCN(C(=O)c5ccc(F)cc5)CC4)cnc32)cc1 [Compound I-1363]	1000 to 10000
O=C(C1CC1)N1CCC(O)(Cn2cnc3c(cnn3-c3cccc(N4CCC(c5ccccc5)CC4)c3)c2=O)CC1 [Compound I-1205]	1000 to 10000
O=C(Nc1ccc(-n2ncc3c(=O)n(CC4(O)CCN(C(=O)C5CC5)CC4)cnc32)cc1)C1CCOCC1 [Compound I-1395]	1000 to 10000
O=C(c1ccc(F)cc1)N1CCC(O)(Cn2cnc3c(cnn3-c3ccc(C4(O)CC4)cc3)c2=O)CC1 [Compound I-713]	1000 to 10000
CN(C)C(=O)Nc1ccc(-n2ncc3c(=O)n(CC4(O)CCN(C(=O)c5ccc(F)cc5)CC4)cnc32)cc1 [Compound I-1576]	1000 to 10000
NCc1cccc(-n2ccc3c(=O)n(CC4(O)CCN(C(=O)c5ccc(F)cc5)CC4)cnc32)c1 [Compound I-51, 7-(3-(Aminomethyl)phenyl)-3-((1-(4-fluorobenzoyl)-4-hydroxypiperidin-4-yl)methyl)-3,7-dihydro-4H-pyrrolo[2,3-d]pyrimidin-4-one]	1000 to 10000
O=C(C1CC1)N1CCC(O)(Cn2cnc3c(cnn3-c3ccc(N4CCCC4)cc3)c2=O)CC1 [Compound I-1199]	1000 to 10000
O=C(Nc1ccc(F)cc1)c1ccc(-n2ncc3c(=O)n(CC4(O)CCN(C(=O)C5CC5)CC4)cnc32)cc1 [Compound I-1492]	1000 to 10000
COC1(C)CCN(c2cc(-n3ncc4c(=O)n(CC5(O)CCN(C(=O)C6CC6)CC5)cnc43)ccc2F)C1 (single isomer, unassigned) [Compound I-971]	200 to 1000
